Like-named read-outs stand apart in the source and are kept apart here.
Experiments:
[1] = Pharmacokinetics in beagles, single-dose regimen of TRQI (i.v.) or TRQC (oral), plasma LC-MS/MS; assay type: in vivo, beagle; settings: for AUC(0-t) / Cmax / Tmax / half-life: beagle, dog, plasma; for AUC(0-t): read-out: AUC0–24 h; for Cmax / Tmax / half-life: mean of six beagles
Procedure, shortened: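 Crossover study in six beagles (9.0–12.0 kg) with a 7-day washout: TRQI 0.5 mL/kg i.v. or TRQC 0.09 g/kg orally, single dose. Plasma was sampled at 14 points to 24 h, protein-precipitated, analysed by LC–MS/MS, with parameters from non-compartmental analysis.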

[2] = Stability of analytes in dog plasma (QC samples); assay type: in vitro ADME
Procedure, shortened: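 QC samples in dog plasma at three concentration levels, three replicates each, tested for short-term (6 h room temperature), long-term (−80 °C, 30 days) and freeze–thaw (three cycles, −80 °C to room temperature) stability. Working solutions prepared in methanol/water 10:90.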

[3] = Tanreqing injection, cited from earlier work
[4] = Pharmacokinetics in beagles, multiple-dose regimen (once per day for 7 days) of TRQI or TRQC, plasma LC-MS/MS; assay type: in vivo; settings: beagle, dog
Procedure, shortened: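 Six beagles dosed once daily for 7 days with TRQI (0.5 mL/kg injection) or TRQC (0.09 g/kg), crossover after washout. Plasma sampled 0–24 h after seventh dose, methanol/acetonitrile-precipitated, measured by LC–MS/MS. Steady-state parameters by non-compartmental analysis.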

[5] = both sexes, iv, single i.v. dose of TRQI 0.5 mL/kg
[6] = both sexes, single oral dose of TRQC 0.09 g/kg
[7] = n = 3, high QC: nominal 200 ng/mL baicalin, 1000 ursodeoxycholic acid, 100 chenodeoxycholic acid and chlorogenic acid
[8] = n = 3, low QC: nominal 4 ng/mL baicalin, 20 ursodeoxycholic acid, 2 chenodeoxycholic acid and chlorogenic acid
[9] = n = 3, middle QC: nominal 20 ng/mL baicalin, 100 ursodeoxycholic acid, 10 chenodeoxycholic acid and chlorogenic acid
[10] = both sexes, iv, TRQI 0.5 mL/kg once per day for 7 days, mean
[11] = both sexes, po, TRQC 0.09 g/kg once per day for 7 days, mean

## C[C@H](CCC(=O)O)[C@H]1CC[C@H]2[C@@H]3[C@H](O)C[C@@H]4C[C@H](O)CC[C@]4(C)[C@H]3CC[C@]12C [Chenodeoxycholic acid, chenodeoxycholic acid]
[1]; TRQC, oral, dogs
  time at which oral absorption reached a peak: ~5 h
[1]; both sexes, iv, 0.5 mL/kg, single TRQI 0.5 mL/kg, Mean
  AUC(0-t): 359 ng·h/mL
[1]; [5]
  Cmax: 120 ng/mL
  Tmax: 1.07 h
  half-life: 5.67 h
[1]; both sexes, po, 0.09 g/kg, single TRQCs 0.09 g/kg, Mean
  AUC(0-t): 553 ng·h/mL
[1]; [6]
  Cmax: 99.8 ng/mL
  Tmax: 7.53 h
  half-life: 5.93 h
[1]; female, iv, 0.5 mL/kg, single TRQI 0.5 mL/kg, beagle No 4
  AUC(0-t): 89 ng·h/mL
[1]; female, iv, 0.5 mL/kg, single TRQI 0.5 mL/kg, beagle No 5
  AUC(0-t): 137 ng·h/mL
[1]; female, iv, 0.5 mL/kg, single TRQI 0.5 mL/kg, beagle No 6
  AUC(0-t): 95 ng·h/mL
[1]; female, po, 0.09 g/kg, single TRQCs 0.09 g/kg, beagle No 4
  AUC(0-t): 1330 ng·h/mL
[1]; female, po, 0.09 g/kg, single TRQCs 0.09 g/kg, beagle No 5
  AUC(0-t): 126 ng·h/mL
[1]; female, po, 0.09 g/kg, single TRQCs 0.09 g/kg, beagle No 6
  AUC(0-t): 1080 ng·h/mL
[1]; male, iv, 0.5 mL/kg, single TRQI 0.5 mL/kg, beagle No 1
  AUC(0-t): 1490 ng·h/mL
[1]; male, iv, 0.5 mL/kg, single TRQI 0.5 mL/kg, beagle No 2
  AUC(0-t): 108 ng·h/mL
[1]; male, iv, 0.5 mL/kg, single TRQI 0.5 mL/kg, beagle No 3
  AUC(0-t): 238 ng·h/mL
[1]; male, po, 0.09 g/kg, single TRQCs 0.09 g/kg, beagle No 1
  AUC(0-t): 104 ng·h/mL
[1]; male, po, 0.09 g/kg, single TRQCs 0.09 g/kg, beagle No 2
  AUC(0-t): 257 ng·h/mL
[1]; male, po, 0.09 g/kg, single TRQCs 0.09 g/kg, beagle No 3
  AUC(0-t): 421 ng·h/mL
[2]; [7]
  Freeze-thaw stability (3 cycles) Mean ± S.D. concentration: 95.70 ± 4.66 ng/mL
  Long-term stability (30 days at – 80 °C) Mean ± S.D. concentration: 101.23 ± 5.13 ng/mL
  Short-term stability (6 h at room temperature) Mean ± S.D concentration: 101.57 ± 0.54 ng/mL
[2]; [8]
  Freeze-thaw stability (3 cycles) Mean ± S.D. concentration: 1.97 ± 0.17 ng/mL
  Long-term stability (30 days at – 80 °C) Mean ± S.D. concentration: 1.92 ± 0.22 ng/mL
  Short-term stability (6 h at room temperature) Mean ± S.D concentration: 1.77 ± 0.06 ng/mL
[2]; [9]
  Freeze-thaw stability (3 cycles) Mean ± S.D. concentration: 9.37 ± 0.95 ng/mL
  Long-term stability (30 days at – 80 °C) Mean ± S.D. concentration: 10.10 ± 0.36 ng/mL
  Short-term stability (6 h at room temperature) Mean ± S.D concentration: 9.79 ± 0.78 ng/mL
[3]; Hu's study
  t1/2: 1.83 h
[3]; another study
  t1/2: 0.55 h
[4]; both sexes, iv, 0.5 mL/kg, TRQI 0.5 mL/kg for 7 days, Mean
  AUC(0-inf): 5030 ng·h/mL
[4]; both sexes, iv, 0.5 mL/kg, TRQI 0.5 mL/kg for 7 days, Mean, read-out: AUC0–24 h
  AUC(0-t): 4070 ng·h/mL
[4]; [10]
  Cmax at 7 days: 968 ng/mL
  half-life at 7 days: 6.25 h
[4]; both sexes, po, 0.09 g/kg, TRQC 0.09 g/kg for 7 days, Mean
  AUC(0-inf): 3710 ng·h/mL
[4]; both sexes, po, 0.09 g/kg, TRQC 0.09 g/kg for 7 days, Mean, read-out: AUC0–24 h
  AUC(0-t): 3430 ng·h/mL
[4]; [11]
  Cmax at 7 days: 521 ng/mL
  Tmax at 7 days: 4.72 h
  half-life at 7 days: 13.7 h
[4]; female, iv, 0.5 mL/kg, TRQI 0.5 mL/kg for 7 days, beagle No. 4
  AUC(0-inf): 6190 ng·h/mL
[4]; female, iv, 0.5 mL/kg, TRQI 0.5 mL/kg for 7 days, beagle No. 4, read-out: AUC0–24 h
  AUC(0-t): 669 ng·h/mL
[4]; female, iv, 0.5 mL/kg, TRQI 0.5 mL/kg for 7 days, beagle No. 5
  AUC(0-inf): 399 ng·h/mL
[4]; female, iv, 0.5 mL/kg, TRQI 0.5 mL/kg for 7 days, beagle No. 5, read-out: AUC0–24 h
  AUC(0-t): 234 ng·h/mL
[4]; female, iv, 0.5 mL/kg, TRQI 0.5 mL/kg for 7 days, beagle No. 6
  AUC(0-inf): 138 ng·h/mL
[4]; female, iv, 0.5 mL/kg, TRQI 0.5 mL/kg for 7 days, beagle No. 6, read-out: AUC0–24 h
  AUC(0-t): 138 ng·h/mL
[4]; female, po, 0.09 g/kg, TRQC 0.09 g/kg for 7 days, beagle No. 4
  AUC(0-inf): 16800 ng·h/mL
[4]; female, po, 0.09 g/kg, TRQC 0.09 g/kg for 7 days, beagle No. 4, read-out: AUC0–24 h
  AUC(0-t): 16700 ng·h/mL
[4]; female, po, 0.09 g/kg, TRQC 0.09 g/kg for 7 days, beagle No. 5
  AUC(0-inf): 1960 ng·h/mL
[4]; female, po, 0.09 g/kg, TRQC 0.09 g/kg for 7 days, beagle No. 5, read-out: AUC0–24 h
  AUC(0-t): 500 ng·h/mL
[4]; female, po, 0.09 g/kg, TRQC 0.09 g/kg for 7 days, beagle No. 6
  AUC(0-inf): 761 ng·h/mL
[4]; female, po, 0.09 g/kg, TRQC 0.09 g/kg for 7 days, beagle No. 6, read-out: AUC0–24 h
  AUC(0-t): 760 ng·h/mL
[4]; male, iv, 0.5 mL/kg, TRQI 0.5 mL/kg for 7 days, beagle No. 1
  AUC(0-inf): 20000 ng·h/mL
[4]; male, iv, 0.5 mL/kg, TRQI 0.5 mL/kg for 7 days, beagle No. 1, read-out: AUC0–24 h
  AUC(0-t): 20000 ng·h/mL
[4]; male, iv, 0.5 mL/kg, TRQI 0.5 mL/kg for 7 days, beagle No. 2
  AUC(0-inf): 183 ng·h/mL
[4]; male, iv, 0.5 mL/kg, TRQI 0.5 mL/kg for 7 days, beagle No. 2, read-out: AUC0–24 h
  AUC(0-t): 121 ng·h/mL
[4]; male, iv, 0.5 mL/kg, TRQI 0.5 mL/kg for 7 days, beagle No. 3
  AUC(0-inf): 3250 ng·h/mL
[4]; male, iv, 0.5 mL/kg, TRQI 0.5 mL/kg for 7 days, beagle No. 3, read-out: AUC0–24 h
  AUC(0-t): 3240 ng·h/mL
[4]; male, po, 0.09 g/kg, TRQC 0.09 g/kg for 7 days, beagle No. 1
  AUC(0-inf): 231 ng·h/mL
[4]; male, po, 0.09 g/kg, TRQC 0.09 g/kg for 7 days, beagle No. 1, read-out: AUC0–24 h
  AUC(0-t): 195 ng·h/mL
[4]; male, po, 0.09 g/kg, TRQC 0.09 g/kg for 7 days, beagle No. 2
  AUC(0-inf): 1930 ng·h/mL
[4]; male, po, 0.09 g/kg, TRQC 0.09 g/kg for 7 days, beagle No. 2, read-out: AUC0–24 h
  AUC(0-t): 1900 ng·h/mL
[4]; male, po, 0.09 g/kg, TRQC 0.09 g/kg for 7 days, beagle No. 3
  AUC(0-inf): 538 ng·h/mL
[4]; male, po, 0.09 g/kg, TRQC 0.09 g/kg for 7 days, beagle No. 3, read-out: AUC0–24 h
  AUC(0-t): 493 ng·h/mL
